The source of these data is patent EP4635969A1, “NOVEL GLUCOCORTICOID, METHOD FOR PREPARING SAME, AND USE THEREOF” (Tianjin Pharmaceutical Biotechnology Co., Ltd., priority 2022, dated 2024).

Series [1] is described as follows: Determination of stability in plasma in vitro, mouse plasma (LC-MS/MS). It is filed as in vitro ADME. The note with it: 37 °C, read-out: Half-life T1/2 (min) in plasma of different species, Mouse plasma. As to the method: (§1) Pharmacological Example 3: Determination of Stability in Plasma in Vitro
(§2) The stock solution was diluted with acetonitrile to obtain a working solution at a concentration of 100 µ M. The solution should be freshly prepared prior to use and maintained at room temperature during application.
(§3) 990 µ L of human and mouse plasma (N = 2) were separately pipetted and pre-incubated at 37 °C for 5 min. Then, 10 µ L of the test compound working solution was added and vortexed thoroughly (the final concentration of the test compound was 1 µ M). Immediately, 50 µ L of the plasma sample was added to 150 µ L of ice-cold precipitation agent containing the internal standard and vortexed thoroughly as the 0-time sample. The remaining plasma sample was continuously incubated at 37 °C, and 50 µ L of the plasma sample was aspirated and added to 150 µ L of ice-cold precipitation agent containing the internal standard at preset sampling time points, followed by thorough vortexing. The collected samples were stored in a freezer at -60 to -90 °C until analysis.
(§4) The concentration of the test compound was determined by LC-MS/MS, and its degradation was monitored. (semi-quantitative determination was conducted by comparing the peak area of the analyte to that of the internal standard).

Series [2] addresses T1, progesterone receptor (PR) (Homo sapiens, UniProt P06401).
T1 sequence (P06401 678-933): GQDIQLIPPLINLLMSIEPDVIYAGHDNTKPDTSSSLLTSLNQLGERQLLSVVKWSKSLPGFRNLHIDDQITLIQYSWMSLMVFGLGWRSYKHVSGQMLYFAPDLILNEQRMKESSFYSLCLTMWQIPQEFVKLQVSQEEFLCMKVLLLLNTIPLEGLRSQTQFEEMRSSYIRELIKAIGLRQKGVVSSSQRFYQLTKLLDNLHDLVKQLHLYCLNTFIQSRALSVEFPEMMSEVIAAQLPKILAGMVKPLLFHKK
In words: Assay for agonist activity on progesterone receptor (luciferase reporter, HEK293 cells transfected with pBIND-PR plasmid). Format: cell-based. The procedure, abridged: (§5)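 HEK293 cells transiently transfected with pBIND-MR or pBIND-PR, seeded in phenol red-free DMEM with 5% charcoal-stripped serum. Compounds tested as 12-point 4-fold dilutions from 50 µM in duplicate, 0.1% DMSO blank. Luciferase luminescence read, EC50 by nonlinear fit.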
(A reporter such as luciferase makes a cellular process visible.)

The next series concerns psoriasis model mice. In words: Psoriasis experiment (imiquimod model): skin lesion (PASI) score. Format: in vivo. The note with it: for PASI scores: compared with the model group; for PASI score: day 8 of modeling, 0.2 g cream per mouse daily for 7 days (compounds 1 mg/g, fluticasone propionate 0.5 mg/g).
A further series deals with asthma model mice. In words: Anti-asthma pharmacodynamic experiment: airway hyperresponsiveness (Penh) after methacholine challenge. Format: in vivo, female BALB/c mice.
A further series deals with IL-17. In words: Psoriasis experiment (imiquimod model): inflammatory cytokine in serum (ELISA). Format: in vivo, mice. The note with it: for level of IL-17 / inflammatory cytokines in psoriasis model mice: compared with the model group; for IL-17: serum, day 8 of modeling, 0.2 g cream per mouse daily for 7 days.
Series [3] deals with T2, mineralocorticoid receptor (MR) (Homo sapiens, UniProt P08235).
T2 sequence (P08235 726-984): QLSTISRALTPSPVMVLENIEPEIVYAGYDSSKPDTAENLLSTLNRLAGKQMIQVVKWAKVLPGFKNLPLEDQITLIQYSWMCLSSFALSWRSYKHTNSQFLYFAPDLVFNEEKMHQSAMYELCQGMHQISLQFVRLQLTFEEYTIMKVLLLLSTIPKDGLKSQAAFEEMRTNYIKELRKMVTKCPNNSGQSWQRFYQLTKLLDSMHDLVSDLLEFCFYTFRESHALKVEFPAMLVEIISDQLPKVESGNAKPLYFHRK
In words: Assay for agonist activity on mineralocorticoid receptor (luciferase reporter, HEK293 cells transfected with pBIND-MR plasmid). Format: cell-based. The essentials: as §5

In series [4] the test system is inflammatory cytokines IL-6 and IL-12. In words: Anti-asthma pharmacodynamic experiment: inflammatory cytokines in bronchoalveolar lavage fluid (ELISA). Format: in vivo, female BALB/c mice.
Procedure: (§6) Pharmacological Example 4: Pharmacodynamic Experiment on Anti-Asthma
(§7) The suspensions were stored at room temperature protected from light until use.
(§8) Positive control drug: Budesonide Suspension for Inhalation (specification: 2 mL: 1 mg; AstraZeneca Inc.; Lot No. : 327392) was diluted with injection-grade sodium chloride solution to 0.3 mg/ml as the positive control drug, and stored at room temperature protected from light until use.
(§9) Sixty female BALB/c mice underwent a one-week adaptive feeding period. Ten mice were randomly selected as the blank control group, while 50 mice were selected to establish asthma models.
(§10) From days 21 to 23 after sensitization, the mice in the model group and drug administration group were exposed to a 30-minute aerosol challenge with 5% OVA, while the mice in the blank control group were exposed to normal saline aerosol for the same duration.
At the end of airway hyperresponsiveness testing in mice, the mice were euthanized by cervical dislocation and fixed on a dissection tray. The abdomens and thoracic cavities of the mice were opened, and the skin and excess tissues of the neck were excised to expose the trachea of the mice. A small incision was made transversely on the trachea with a small scissors. A pre-treated 1 mL syringe needle was inserted and fastened with surgical thread. A 1 mL syringe was used to slowly inject 0.5 mL of pre-chilled phosphate-buffered saline (PBS) into the lungs of the mice, followed by slow aspiration. Each mouse was lavaged once, and a total of approximately 0.4 ml of lavage fluid was collected. The bronchoalveolar lavage fluid was centrifuged at 3000 rpm for 5 min. After centrifugation, the supernatant was aliquoted, and the levels of inflammatory cytokines IL-6 and IL-12 in the bronchoalveolar lavage fluid were determined using ELISA kits.
(§11) Statistical analysis was performed using SPSS software. Measurement data were expressed as mean ± standard deviation. One-way ANOVA was used for intergroup comparisons. For data with homogeneous variance, LSD test was used; for data with heterogeneous variance, Dunnett-t test was used. A value of P < 0.05 was considered statistically significant.
A short description of series [5]: Determination of stability in plasma in vitro, human plasma (LC-MS/MS). The note with it: human, human plasma, 1 µM, 37 °C; read-out: Half-life T1/2 (min) in plasma of different species, Human plasma. It is filed as in vitro ADME. Here is the method:
as §1, §2, §3, §4

Series [6] in a line: Stability in animal lung tissue homogenate, skin tissue homogenate and aqueous humor. Format: in vitro ADME.
The nature of series [7]: Pharmacokinetic (PK) experiment in rats. The note with it: male, SD, rat, plasma, single. Format: in vivo, male SD rats. As to the method:
Pharmacological Example 11. Pharmacokinetic (PK) Experiment in Rats
The solution was prepared before administration.
Animals: 6 male SD rats, SPF grade (Beijing Vital River Laboratory Animal Technology Co., Ltd.).
Animal grouping: The animals were weighed prior to administration, and the dosage was calculated based on body weight. The animals in the oral administration group were fasted overnight (10-14 hours) before administration, and food was reintroduced 4 hours post-administration. Table 23. Animal grouping and drug administration dosages for pharmacokinetic (PK) experiment in rats
Blood collection time points: Blood was collected from the jugular vein at 2 min, 5 min, 15 min, 30 min, 1 h, 2 h, 4 h, 8 h, and 24 h after administration. Approximately 0.25 mL of blood was collected for each sample, anticoagulated with heparin sodium, and then placed on ice immediately.
Plasma sample processing: Blood samples were placed on ice after collection and centrifuged to separate plasma within 1 hour (centrifugation conditions: 6000 rpm, 3 minutes, 2-8 °C ). Plasma samples were stored in a -80°C freezer before analysis.
Data processing: Pharmacokinetic parameters were calculated using Phoenix WinNonlin 8.2.0 based on the plasma drug concentration data at different time points.

For series [8] the following is noted: after entering the systemic circulation; cited from earlier work.
[9] abbreviates: bronchoalveolar lavage fluid, 0.3 mg/mL, 50 µL intratracheally once daily for 3 days.

Procedure for asthma model mice: as §6, §7, §8, §9, §10
Airway responsiveness was measured in all groups of mice after the last challenge. The mice were placed into a plethysmography chamber, and baseline Penh values were recorded. Subsequently, the mice were challenged with aerosolized methacholine at concentrations from low to high of 0, 6.25, and 12.5 mg/mL, with an aerosol volume of 100 µ L each time for 60 s. […] Penh values were then recorded for 3 min and averaged to compare the airway responsiveness of each group of mice.
as §11
Procedure for psoriasis model mice: Positive control drug: Fluticasone Propionate Cream (specification: 0.05% × 15 g, Zhejiang Xianju Pharmaceutical Co. Ltd., Lot No. 211106), stored at room temperature protected from light until use.
Adult mice were selected, and the skin of 2 cm × 3 cm on the back of mice was locally depilated. The mice in the model group and drug administration group were applied with 62.5 mg of 5% imiquimod cream on their back for modeling, while the mice in the blank control group were applied with medical petroleum jelly on their back daily. The above procedures were performed once a day for 7 consecutive days.
The mice in the drug administration group were applied with the corresponding drugs on their backs daily at a dose of 0.2 g per mouse, while the blank control group and the model group were only applied with 0.2 g of the test sample drug matrix. One hour after drug administration, the drugs were wiped off with sterile cotton swabs, followed by the application of imiquimod. The above procedures were performed once a day for 7 consecutive days.
Referring to the clinical Psoriasis Area and Severity Index (PASI) scoring criteria, erythema, scaling, and thickness at the skin lesion sites were evaluated on a 0-4 scale on day 8 of modeling, and the total score was obtained by summing the three items.
• (1) Erythema: a score of 0 points indicates no erythema, a score of 1 point indicates erythema appearing light red, a score of 2 points indicates erythema appearing red, a score of 3 points indicates erythema appearing dark red, and a score of 4 points indicates erythema appearing extremely deep red; • (2) Scaling: a score of 0 points indicates no scaling on the surface, a score of 1 point indicates partial skin lesions covered with scaling, a score of 2 points indicates most skin lesions covered with scaling, a score of 3 points indicates almost all skin lesions covered with scaling in layers, and a score of 4 points indicates all skin lesions covered with scaling; • (3) Thickness: a score of 0 points indicates skin lesions flush with normal skin, a score of 1 point indicates skin lesions slightly elevated above normal skin surface, a score of 2 points indicates moderate elevation of skin lesions, a score of 3 points indicates thickened skin lesions with obvious elevation, and a score of 4 points indicates highly thickened skin lesions with prominent elevation.
Statistical analysis was performed using SPSS software, and the results were expressed as mean ± standard deviation. One-way ANOVA was used for intergroup comparisons. For data with homogeneous variance, the LSD test was used; for data with heterogeneous variance, the Dunnett-t test was used. A value of P < 0.05 was considered statistically significant.

For `C[C@]12C=CC(=O)C=C1[C@@H](F)C[C@H]1[C@@H]3C[C@H]4OC(c5ccc(CSC6CCOC6=O)cc5)O[C@@]4(C(=O)CO)[C@@]3(C)C[C@H](O)[C@@]12F` (stereo partly drawn) [Compound 8, (2S,6aS,6bR,7S,8aS,8bS,11aR,12aS,12bS)-2,6b-Difluoro-7-hydroxy-8b-(2-hydroxyacetyl)-6a,8a-dimethyl-10-(4-(((2-oxotetrahydrofuran-3-yl)thio)methyl)phenyl)-1,2,6a,6b,7,8,8a,8b,11a,12,12a, 12b-dodecahydro-4H-naphtho[2',1':4,5]indeno[1,2-d][1,3]dioxol-4-one], the half-life at 1 µM in [1] is below 30 min. The EC50 in series [2] was above 50 µM. Besides, in the series on psoriasis model mice, the PASI scores result is recorded as “PASI scores significantly decreased on day 7” and the PASI score came out at 4.8 ± 1.3. The “Penh values in mice, Methacholine concentration (mg/ml) 0” value in the series with asthma model mice (0.3 mg/mL, 50 µL intratracheally once daily for 3 days, methacholine 0 mg/ml) is on record as 1.17 ± 0.23. Also, the “Penh values in mice, Methacholine concentration (mg/ml) 6.25” value in the series with asthma model mice (0.3 mg/mL, 50 µL intratracheally once daily for 3 days, methacholine 6.25 mg/ml) worked out at 1.78 ± 0.46. The “Penh values in mice, Methacholine concentration (mg/ml) 12.5” value in the series on asthma model mice (0.3 mg/mL, 50 µL intratracheally once daily for 3 days, methacholine 12.5 mg/ml) stood at 2.07 ± 0.66. The “Effects on airway hyperresponsiveness (Penh values) in mice” value in the series with asthma model mice (compared with the model group) was “significantly decreased the Penh values in mice”. Also, in the series on IL-17, the “level of IL-17 / inflammatory cytokines in psoriasis model mice” value is “significantly decreased the level of IL-17” and the “IL-17” value stood at 53.35 ± 64.19 pg/mL. For the same compound, the 50% effective concentration (EC50) in [3] was above 50 µM. In [4] (setting [9]), the “IL-6” value was found to be 19.9 ± 5.3 pg/mL and the “IL-12” value is given as 20.1 ± 7.1 pg/mL. In [4] (compared with the model group), the “Effects on inflammatory cytokines in bronchoalveolar lavage fluid of mice” value was “extremely significantly decreased the levels of IL-6 and IL-12 in mice”. Further, the half-life at 1 µM in series [5] is below 30 min. Moreover, in [6], the “stability in animal lung tissue homogenate, skin tissue homogenate, and aqueous humor” value was “relatively stable”. In [7] (iv, 2 mg/kg), this compound returned an AUC(0-t) of 106 ± 35.9 ng·h/mL and a half-life below 0.5 h. In series [7] (po, 10 mg/kg, gavage), the AUC(0-t) is below 70 ng·h/mL and the half-life was 5.21 ± 3.17 h. Further, the Cmax in series [7] (IV, 2 mg/kg) amounted to 924 ± 504 ng/mL. The same compound yielded a Cmax in series [7] (PO, 10 mg/kg, gavage) of 23.5 ± 14.4 ng/mL.
For `CCC(=O)O[C@]1(C(=O)SCF)[C@H](C)C[C@H]2[C@@H]3C[C@H](F)C4=CC(=O)C=C[C@]4(C)[C@@]3(F)[C@@H](O)C[C@@]21C` [Fluticasone propionate, reference compound], the “plasma half-life in the human body” value in [8] was 3 h. In addition, in the series on psoriasis model mice, the PASI scores entry was “PASI scores significantly decreased on day 7” and the PASI score is recorded as 4.0 ± 0.6. In addition, in the series with IL-17, the “level of IL-17 / inflammatory cytokines in psoriasis model mice” value was “significantly decreased the level of IL-17” and the “IL-17” value was determined as 25.04 ± 10.02 pg/mL.

As a reminder, the EC50 is the concentration at which the effect is half-maximal. Higher therefore signals lower potency in that assay. For orientation: AUC(0-t) means the area under the concentration-time curve up to a stated or last time point. A low value points to low exposure. By Cmax is commonly meant the peak of the concentration-time curve.
